Test results as given in patent US10449208B2, “Antiviral prodrugs of tenofovir” (Merck Sharp & Dohme Corp., priority 2016, dated 2019).
Where two headings read alike, the source gives them in different places.

Experiments:
HIV-1 (H9/IIIB strain) = assay: Multiple round HIV-1 infection assay (Viking assay) in MT4-GFP cells; format: cell-based; settings: MT4-GFP cells infected with HIV-1 H9/IIIB, inhibition of reproductive ratio R0
Method: Assessing Antiviral Potency in a Multiple Round HIV-1 Infection Assay (Viking Assay)
The antiviral activity of the tenofovir prodrugs of the Examples herein was assessed in an assay that measures the rate of replication of HIV in cell culture, termed the Viking assay (Viral KINetics in Green cells) and performed as follows. HIV-1 replication was monitored using MT4-gag-GFP clone D3 (hereafter designated MT4-GFP), which are MT-4 cells modified to harbor a GFP reporter gene, the expression of which is dependent on the HIV-1 expressed proteins tat and rev. Productive infection of an MT4-GFP cell with HIV-1 results in GFP expression approximately 24 h post-infection. MT4-GFP cells were maintained at 37° C./5% CO2/90% relative humidity in RPMI 1640 supplemented with 10% fetal bovine serum, 100 μ/ml penicillin/streptomycin, and 400 μg/ml G418 to maintain the reporter gene. For infections, MT4-GFP cells were placed in the same medium lacking G418 and infected overnight with HIV-1 (H9/IIIB strain) virus at an approximate multiplicity of infection of 0.01 in the same incubation conditions. Cells were then washed and re-suspended in either RPMI 1640 supplemented with 10% or 50% normal human serum (NFIS) at 1.6×10^5 cells/mL (10% NHS or 50% NHS, respectively). Compound plates were prepared by dispensing compounds dissolved in DMSO into wells of 384 well poly-D -lysine-coated plates (0.2 μl/well) using an ECHO acoustic dispenser. Each compound was tested in a 10-point serial 3-fold dilution (typical final concentrations: 8.4 μM-0.42 nM). Controls included no inhibitor (DMSO only) and a combination of three antiviral agents (efavirenz, indinavir, an in-house integrase strand transfer inhibitor at final concentrations of 4 μM each). Cells were added (50 μL/well) to compound plates and the infected cells were maintained at 37° C./5% CO2/90% relative humidity.
infected cells were quantified at two time points, ˜48 h and ˜72 h post -infection, by counting the number of green cells in each well using an Acumen eX3 scanner. The increase in the number of green cells over ˜24 h period gives the reproductive ratio, R0, which is typically 5-15 and has been shown experimentally to be in logarithmic phase (data not shown). Inhibition of R0 is calculated for each well, and IC50s determined by non-linear 4-parameter curve fitting.

[1] = Prodrug stability assay in bio-relevant media (FaSSIF with Pancreatin, simulated gastrointestinal tract conditions); format: in vitro ADME; settings: % parent prodrug remaining at 5 h vs 0 h, 37° C., 0.5 mg/mL Pancreatin in FaSSIF, HPLC area ratio
Method: Prodrug Stability Assay in Bio-Relevant Media
The following assay was employed to evaluate the stability of the prodrugs in simulated gastrointestinal tract conditions. Preparation of fasted state simulated intestinal fluid (FaSSIF) using Phares SIF Powder was carried out according to protocols from Phare Drug Delivery AG (Baselland, Switzerland). For sample preparation, 10 μL stock solutions (10 mM) of prodrug substance in DMSO was added to 990 μL of 0.5 mg/mL Pancreatin solution (Fisher CAS#8049-47-6) in FaSSIF. Two samples were prepared for each compound at initial. If the sample was clear solution at the beginning, ran one sample directly as initial by HPLC; if the sample was not clear at starting, diluted the sample by 100% ACN. Put the other sample under 37° C. and observed the sample at 5 h time-point. At 5 h time point, if the sample was clear solution then performed HPLC analysis directly; if it was not clear solution, diluted the sample by 100% ACN and assayed by HPLC. All the samples were vortexed for 3 min and observed before injection. For the diluted samples, the area will be multiplied by a factor when data analysis. The analysis was carried out with an Agilent 1100 series HPLC with autosampler. The column was usually a Poroshell 120 EC -C18, 4.6×50 mm, 2.7 μm. The flow rate was 1.8 mL/min, and the injection volume was 5 or 10 μL. UV detection was in the range 210-400 nm. The mobile phase consisted of solvent A (water plus 10 mM tetrabutylammonium bromide) and solvent B (acetonitrile) with a gradient of 90% solvent A at 0 min changing to 95% solvent B over 6 min, maintained for 1.5 min, then reverting to 90% solvent A over 1.6 min. The area of the parent in prodrug at 5h time point was divided by the area of the parent in prodrug at 0 h time point, to generate the % claimed parent ratio, which are summarized in Table 2 for GI Tract stability.

[2] = Human immunodeficiency virus 1, IIIB, 10% normal human serum, read-out: Viking, IC50 (10% NHS)
[3] = Human immunodeficiency virus 1, IIIB, 50% normal human serum, read-out: Viking, IC50 (50% NHS)
[4] = 50% normal human serum, read-out: Viking, IC50 (50% NHS)
[5] = 10% normal human serum, read-out: Viking, IC50 (10% NHS)

| GI Tract stability [1] | SMILES | IC50 (HIV-1 (H9/IIIB strain); [2]) | IC50 (HIV-1 (H9/IIIB strain); [3]) | IC50 (HIV-1 (H9/IIIB strain); [4]) | IC50 (HIV-1 (H9/IIIB strain); [5]) |
| --- | --- | --- | --- | --- | --- |
| 73.54% | CC(C)OC(=O)COP(=O)(CO[C@H](C)Cn1cnc2c(N)ncnc21)NC(C)(C)C(=O)OCc1ccccc1 (mixture of isomers) [Example 42, Benzyl 2-((((((R)-1-(6-amino-9H-purin-9-yl)propan-2-yl)oxy)methyl)(2-isopropoxy-2-oxoethoxy)phosphoryl)amino)-2-methylpropanoate] | 5 nM | 21.8 nM | – | – |
| 15.36% | CCCCCCOC(=O)C(C)(C)NP(=O)(CO[C@H](C)Cn1cnc2c(N)ncnc21)O[C@@H](C)C(=O)OC(C)C (single isomer, unassigned) [Example 7A] | – | – | 21 nM | 5.03 nM |
| 76.64% | CCCCCCOC(=O)C(C)(C)NP(=O)(CO[C@H](C)Cn1cnc2c(N)ncnc21)O[C@@H](C)C(=O)OC(C)C (single isomer, unassigned) [Example 7B] | – | – | 1.01 nM | 0.37 nM |
| 94.11% | CCCCCOC(=O)COP(=O)(CO[C@H](C)Cn1cnc2c(N)ncnc21)NC(C)(C)C(=O)OC(C)C (single isomer, unassigned) [Example 8A] | – | – | 27 nM | 6.76 nM |
| 71.6% | CCCCCOC(=O)COP(=O)(CO[C@H](C)Cn1cnc2c(N)ncnc21)NC(C)(C)C(=O)OC(C)C (single isomer, unassigned) [Example 8B] | – | – | 161 nM | 22.7 nM |
| 6.16% | CCCCCCOC(=O)C(C)(C)NP(=O)(CO[C@H](C)Cn1cnc2c(N)ncnc21)O[C@H](C)C(=O)OC(C)C (single isomer, unassigned) [Example 9B] | – | – | 2.78 nM | 1 nM |
| 98.95% | CC(C)OC(=O)[C@H](C)OP(=O)(CO[C@H](C)Cn1cnc2c(N)ncnc21)NC(C)(C)C(=O)OC1CCCCC1 (single isomer, unassigned) [Example 12A] | 5.71 nM | 25.2 nM | – | – |
| 70.30% | CC(C)OC(=O)C(C)(C)NP(=O)(CO[C@H](C)Cn1cnc2c(N)ncnc21)O[C@@H](C)C(=O)OC1CCCC1 (single isomer, unassigned) [Example 13A] | 6.17 nM | 51.1 nM | – | – |
| 99.72% | CC(C)OC(=O)C(C)(C)NP(=O)(CO[C@H](C)Cn1cnc2c(N)ncnc21)O[C@@H](C)C(=O)OC1CCCC1 (single isomer, unassigned) [Example 13B] | – | – | 60.2 nM | 9.44 nM |
| 99.32% | CC(C)OC(=O)COP(=O)(CO[C@H](C)Cn1cnc2c(N)ncnc21)NC(C)(C)C(=O)OC1CCC1 (single isomer, unassigned) [Example 17B] | – | – | 18.4 nM | 6.7 nM |
| 76.31% | CC(C)OC(=O)[C@H](C)OP(=O)(CO[C@H](C)Cn1cnc2c(N)ncnc21)NC(C)(C)C(=O)OC1CCCC1 (single isomer, unassigned) [Example 18A] | – | 16.5 nM | – | 6.59 nM |

Second part, the molecule before the results:

| SMILES | GI Tract stability [1] | IC50 (HIV-1 (H9/IIIB strain); [2]) | IC50 (HIV-1 (H9/IIIB strain); [3]) | IC50 (HIV-1 (H9/IIIB strain); [4]) | IC50 (HIV-1 (H9/IIIB strain); [5]) |
| --- | --- | --- | --- | --- | --- |
| CC(C)OC(=O)[C@H](C)OP(=O)(CO[C@H](C)Cn1cnc2c(N)ncnc21)NC(C)(C)C(=O)OC(C)C (single isomer, unassigned) [Example 1A] | 85.74% | 14.7 nM | – | 61.1 nM | – |
| CC(C)OC(=O)[C@H](C)OP(=O)(CO[C@H](C)Cn1cnc2c(N)ncnc21)NC(C)(C)C(=O)OC(C)C (single isomer, unassigned) [Example 1B] | 99.82% | – | – | 12.1 nM | 7.43 nM |
| CCCCCOC(=O)C(C)(C)NP(=O)(CO[C@H](C)Cn1cnc2c(N)ncnc21)O[C@@H](C)C(=O)OC(C)C (single isomer, unassigned) [Example 2A] | 61.61% | – | – | 22.1 nM | 4.05 nM |
| CCCCCOC(=O)C(C)(C)NP(=O)(CO[C@H](C)Cn1cnc2c(N)ncnc21)O[C@@H](C)C(=O)OC(C)C (single isomer, unassigned) [Example 2B] | 91.95% | – | – | 70.9 nM | 18.2 nM |
| CC(C)OC(=O)COP(=O)(CO[C@H](C)Cn1cnc2c(N)ncnc21)NC(C)(C)C(=O)OC(C)C (single isomer, unassigned) [Example 3A] | 96.63% | 36.6 nM | – | 121 nM | – |
| CC(C)OC(=O)COP(=O)(CO[C@H](C)Cn1cnc2c(N)ncnc21)NC(C)(C)C(=O)OC(C)C (single isomer, unassigned) [Example 3B] | 95.71% | – | – | 47.9 nM | 29.1 nM |
| CCCCCOC(=O)C(C)(C)NP(=O)(CO[C@H](C)Cn1cnc2c(N)ncnc21)OCC(=O)OC(C)C (single isomer, unassigned) [Example 4A] | 99.07% | 13.9 nM | 86.5 nM | – | – |
| CCCCCOC(=O)C(C)(C)NP(=O)(CO[C@H](C)Cn1cnc2c(N)ncnc21)OCC(=O)OC(C)C (single isomer, unassigned) [Example 4B] | 98.87% | – | – | 158 nM | 19.4 nM |
| CCCCCCOC(=O)C(C)(C)NP(=O)(CO[C@H](C)Cn1cnc2c(N)ncnc21)OCC(=O)OC(C)C (single isomer, unassigned) [Example 6A] | 95.97% | 3.14 nM | 15.2 nM | – | – |
| CCCCCCOC(=O)C(C)(C)NP(=O)(CO[C@H](C)Cn1cnc2c(N)ncnc21)OCC(=O)OC(C)C (single isomer, unassigned) [Example 6B] | 73.16% | – | – | 7.99 nM | 2.14 nM |
| CC(C)OC(=O)[C@H](C)OP(=O)(CO[C@H](C)Cn1cnc2c(N)ncnc21)NC1(C(=O)OC(C)C)CCCC1 (stereo partly drawn) [Example 48, Isopropyl 1-((((((R)-1-(6-amino-9H-purin-9-yl)propan-2-yl)oxy)methyl)(((S)-1-isopropoxy-1-oxopropan-2-yl)oxy)phosphoryl)amino)cyclo-pentane-1-carboxylate] | – | 13.3 nM | 37.3 nM | – | – |
| CC(C)OC(=O)[C@H](C)OP(=O)(CO[C@H](C)Cn1cnc2c(N)ncnc21)NC1(C(=O)OC(C)C)CCC1 (stereo partly drawn) [Example 50, Isopropyl 1-((((((R)-1-(6-amino-9H-purin-9-yl)propan-2-yl)oxy)methyl)(((S)-1-isopropoxy-1-oxopropan-2-yl)oxy)phosphoryl)amino)cyclo-butane-1-carboxylate] | – | 8.66 nM | 34.3 nM | – | – |
| CC(C)OC(=O)[C@H](C)OP(=O)(CO[C@H](C)Cn1cnc2c(N)ncnc21)NC1(C(=O)OC(C)C)CCCCC1 (stereo partly drawn) [Example 52, Isopropyl 1-((((((R)-1-(6-amino-9H-purin-9-yl)propan-2-yl)oxy)methyl)(((S)-1-isopropoxy-1-oxopropan-2-yl)oxy)phosphoryl)amino)cyclo-hexane-1-carboxylate] | – | 10.8 nM | 45.6 nM | – | – |
